Data reported in PubChem BioAssay (NCI).
Values joined by “and” are separate entries in the source; they are usually repeats but may differ in a detail not shown here. Equal values may be shown once.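 Tested at 5 concentrations; 48 h exposure; 96-well plates; endpoints linearly interpolated, else capped at highest concentration. GI50 is the concentration that inhibits growth by half. TGI is the concentration that stops growth completely.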

Legend:
Experiment in all cases: inhibition of tumour cell growth, NCI panel, 48 h
UACC-257 melanoma = system: UACC-257 melanoma
NCI-H226 lung = system: NCI-H226 lung
A549 NSCLC = system: A549 NSCLC
SK-MEL-2 melanoma = system: SK-MEL-2 melanoma
KM12 colon = system: KM12 colon
TK-10 renal = system: TK-10 renal
MALME-3M melanoma = system: MALME-3M melanoma
SF-268 CNS = system: SF-268 CNS
M14 melanoma = system: M14 melanoma
HCC-2998 colon = system: HCC-2998 colon

| Structure (SMILES) | TGI (UACC-257 melanoma) | TGI (NCI-H226 lung) | TGI (A549 NSCLC) | TGI (SK-MEL-2 melanoma) | TGI (KM12 colon) | TGI (TK-10 renal) | TGI (MALME-3M melanoma) | TGI (SF-268 CNS) | TGI (M14 melanoma) [µM] | TGI (HCC-2998 colon) | GI50 (UACC-257 melanoma) [µM] | GI50 (NCI-H226 lung) [µM] | GI50 (A549 NSCLC) [µM] | GI50 (SK-MEL-2 melanoma) [µM] | GI50 (KM12 colon) [µM] | GI50 (TK-10 renal) [µM] | GI50 (MALME-3M melanoma) [µM] | GI50 (SF-268 CNS) [µM] | GI50 (M14 melanoma) [µM] | GI50 (HCC-2998 colon) [µM] |
| --- | --- | --- | --- | --- | --- | --- | --- | --- | --- | --- | --- | --- | --- | --- | --- | --- | --- | --- | --- | --- |
| CC(C)(C)[Si](C)(C)OCC1CCC(n2cnc3c(NC(=O)c4ccccc4)ncnc32)O1 (configuration not stated) | 33.4 µM | 34.6 µM | 39.9 µM | 45.6 µM | 31.3 µM | 38.6 µM | 34.3 µM | 33.4 µM | 30.3 | 36.2 µM | – | – | – | – | – | – | – | – | – | – |
| CCNC(=O)C[C@@H]1N=C(c2ccc(Cl)cc2)c2cc(OC)ccc2-n2c(C)nnc21 | > 100 µM | > 100 µM | > 100 µM | > 100 µM | > 100 µM | > 53.8 µM | > 100 µM | > 100 µM | > 100 | > 100 µM | 2 | > 32.8 | 13.1 | 3.28 | 27.1 | 0.645 | 3.49 | > 53.6 | 2.02 | 5.77 |
| CCOC(=N)CC(=O)Nc1ccc(Cl)cc1 | > 100 µM | > 100 µM | > 100 µM | > 100 µM | > 100 µM | > 100 µM | > 100 µM | > 100 µM | > 100 | > 100 µM | – | – | – | – | – | – | – | – | – | – |
| CNc1ccccc1C(=O)N/N=C/C=C/c1ccccc1 | 72.1 µM | > 100 µM | > 100 µM | 78.2 µM | 50.5 µM | > 100 µM | 97.4 µM | > 100 µM | 24.8 | 36.3 µM | 11.4 | 10 | 1.06 | 0.733 | 0.547 | 3.33 | 9.91 | 7.23 | 0.6 | 8.82 |
| C[Si](C)(C)C#CCO[Si](C)(C)C | > 100 µM | > 100 µM | > 100 µM | > 100 µM | > 89.3 µM | > 100 µM | > 100 µM | > 89.3 µM | > 100 | > 100 µM | – | – | – | – | – | – | – | – | – | – |
| CCC/C(=N\NC(=S)N1CCN(c2ccccn2)CC1)c1ccccn1 | 0.224 µM and 1.87 µM | 3.67 µM and 1.75 µM | > 3.16 µM and 1.93 µM | 0.312 µM and 1.65 µM | 0.64 µM and 1.52 µM | > 5.42 µM and 2.46 µM | 0.565 µM and 2.07 µM | > 10 µM and 1.85 µM | 0.318 | 1.64 µM and 1.59 µM | – | 0.136 | 0.032 | 0.19 | – | 1.09 | – | – | 0.122 | 0.0462 |
| CCN1C(=O)C/C(=C\C(C)=O)Nc2ccccc21 | > 100 µM | > 100 µM | > 100 µM | > 100 µM | > 100 µM | > 100 µM | > 100 µM | > 100 µM | > 100 | > 100 µM | > 100 | – | – | – | – | – | – | – | – | – |
| O=C(Nc1ccc(Cl)c([N+](=O)[O-])c1)Nc1nc2ccccc2s1 | 6.99 µM | 17.3 µM | 13 µM | 5.32 µM | 8.32 µM | 12.8 µM | 7.36 µM | 16.6 µM | 33 | 13.1 µM | 2.4 | 4.06 | 3.37 | 2.37 | 2.82 | 4.26 | 2.62 | 4.49 | 11.3 | 3.03 |
| C/C(=N\N=C(N)N)C(CN(CC(C)C)CC(C)C)C(=O)Nc1ccc(C)cc1C (configuration not stated) | > 100 µM | > 100 µM | > 100 µM | > 100 µM | > 100 µM | > 100 µM | > 100 µM | > 100 µM | > 100 | > 100 µM | – | – | – | – | – | – | – | – | – | – |
| COc1cc2oc(=O)cc(C)c2cc1[N+](=O)[O-] | 33.5 µM | 26.9 µM | > 100 µM | 58 µM | > 57.3 µM | 83.6 µM | 49.5 µM | 45 µM | 37.9 | 22.2 µM | – | – | – | – | – | – | – | – | – | – |
| C=CC1(C)CCC(C(C)C(=O)C(C=C(C)C)OC(C)=O)C12C(=O)Oc1ccccc1C2=O (configuration not stated) | > 100 µM | > 100 µM | > 100 µM | > 100 µM | > 100 µM | > 100 µM | > 100 µM | > 100 µM | > 100 | > 100 µM | – | – | – | – | – | – | – | – | – | – |
| S=CN1CCCCC1 | > 100 µM | > 100 µM | > 100 µM | > 100 µM | > 100 µM | > 100 µM | > 100 µM | > 100 µM | > 100 | > 100 µM | – | – | – | – | – | – | – | – | – | – |
| O=C1/C(=C/c2cccc([N+](=O)[O-])c2)COc2ccc(O)c(O)c21 | 4.81 µM | 8.33 µM | 6.37 µM | 4.35 µM | 3.4 µM | 3.21 µM | 3.04 µM | 4.3 µM | 4.27 | 3.22 µM | 1.86 | 2.35 | 2.06 | 2 | 1.68 | 1.7 | 1.49 | 1.79 | 1.81 | 1.66 |
| O=C(O)c1ccc(S(=O)(=O)c2ccccc2)c([N+](=O)[O-])c1 | > 100 µM | > 100 µM | > 100 µM | > 100 µM | > 100 µM | > 100 µM | > 100 µM | > 100 µM | > 100 | > 100 µM | – | – | – | – | – | – | – | – | – | – |
| CCCCCCCCCCCCCS(=O)(=O)O | > 100 µM | > 100 µM | > 100 µM | > 100 µM | > 100 µM | > 100 µM | > 100 µM | > 100 µM | > 100 | > 100 µM | – | – | – | – | – | – | – | – | – | – |
